From patent US11857544B2, “Composition or method including (t)ew-7197 for treating or preventing corneal endothelial diseases” (THE DOSHISHA, priority 2017, dated 2024)

Tests used:
[1] = test system: iFECD; assay: Cell survival rate (Cell Titer-Glo Luminescent Cell Viability Assay); assay type: cell-based, human; conditions: iFECD; all concentrations of 0.01, 0.1, 1, and 10 μM; 48 hours
Method: were seeded on a 96-well plate at a ratio of 3×10^3 cells per well, and cultured until reaching confluence at 37° C. (5% CO2). DMEM+10% FBS+1% P/S was used as the medium. After 24 hours, the medium was removed. SB431542 (WAKO, 192-16541) and EW-7197 (Selleck Chemicals, 57530) were added so that the final concentration would each be 0.01, 0.1, 1, or 10 μM, and the medium was cultured for 48 hours. DMEM+2% FBS+1% P/S was used as the medium. After 24 hours, the cell morphology was observed under a phase contrast microscope. After observation, the cell survival rate was analyzed using Cell Titer-Glo Luminescent Cell Viability Assay by the following procedures. The medium was discarded so that the amount would be 50 μl per well, and Cell Titer-Glo Luminescent Cell Viability Assay solution (Promega, G7572) was added at 50 μl/well so that the ratio to the medium would be 1:1. The process was hereinafter conducted without exposure to light. The mixture was mixed thoroughly using a shaker for 2 minutes at about 120 min^-1, and incubated for 10 minutes. After the incubation, 80 μl was transferred to an Assay plate (Corning, 3912, Assay plate 96 well, white polystyrene), and absorbance was measured using a GloMax-Multi Detection System (Promega, E7051).

[2] = test system: Caspase 3/7; assay: Caspase 3/7 activity (Caspase-Glo 3/7 Assay) in TGF-β-stimulated iFECD; assay type: cell-based, human; conditions: in the order of 0.01, 0.1, 1, and 10 μM
Method: were seeded on a 96-well plate at a ratio of 3×10^3 cells per well, and cultured until reaching confluence at 37° C. (5% CO2). DMEM+10% FBS+1% P/S was used as the medium. After 24 hours, the medium was removed. SB431542 (WAKO, 192-16541) and EW-7197 (Selleck Chemicals, 57530) were added so that the final concentration would each be 0.01, 0.1, 1, or 10 μM, and the medium was cultured for 24 hours. DMEM+2% FBS+1% P/S was used as the medium. After 24 hours, the medium was removed. 10 ng/ml of Transforming Growth Factor-132 Human recombinant (WAKO, 200-19911) and SB431542 were added so that the final concentration would be 0.01, 0.1, 1, and 10 μM, and the medium was cultured for 24 hours. DMEM+2% FBS+1% P/S was used as the medium. After 24 hours, the cell morphology was observed under a phase contrast microscope. After observation, Caspase 3/7 activity was measured using Caspase-Glo 3/7 Assay by the following procedures. The medium was discarded so that the amount would be 50 μl per well, and a Caspase Glo 3/7 Assay Reagent (mixture of Caspase-Glo 3/7 Assay Buffer and Caspase-Glo 3/7 Assay Substrate) (Promega, G8091) solution was added at 50 μl/well so that the ratio thereof to the medium would be 1:1. The process was hereinafter conducted without exposure to light. The mixture was mixed thoroughly using a shaker for 2 minutes at about 120 min^-1, and incubated for 40 minutes at room temperature. After the incubation, 80 μl was transferred to an Assay plate (Corning, 3912, Assay plate 96 well, white polystyrene), and absorbance was measured using a GloMax-Multi Detection System (Promega, E7051). A caspase inhibitor, i.e., 10μ MZ-VD-FMK (WAKO, 262-02061) was used as a positive control.

[3] = test system: immortalized human corneal endothelial cells from a Fuchs' endothelial corneal dystrophy patient (iFECD); assay: Suppression of TGF-β-induced corneal endothelial cell disorder, observed under a phase contrast microscope; assay type: cell-based; conditions: for effect of suppressing corneal endothelial cell disorder: Example 1, iFECD, 24 h pretreatment then 10 ng/ml TGF-β 24 h
Method: The medium was removed from a culture dish culturing immortalized human corneal endothelial cells from a Fuchs' endothelial corneal dystrophy patient (iFECD), and 1×PBS(-) preheated to 37° C. was added and washed. This was repeated twice. 1×PBS(-) was added again and the medium was incubated for 5 minutes at 37° C. (5% CO2). After removing the PBS(-), 0.05% Trypsin-EDTA (Nacalai Tesque, 32778-34) was added and incubated for 5 minutes at 37° C. (5% CO2). The medium was then suspended and centrifuged for 3 minutes at 1500 rpm to retrieve cells. DMEM (Nacalai Tesque, 08456-36)+10% FBS (Biowest, S1820-500)+1% P/S (Nacalai Tesque, 26252-94) was used as the medium. The immortalized human corneal endothelial cells from a Fuchs' endothelial corneal dystrophy patient (iFECD) were seeded on a 12-well plate at a ratio of 8.0×10^4 cells per well and cultured for 24 hours at 37° C. (5% CO2). DMEM+10% FBS+1% P/S was used as the medium. After 24 hours, the medium was exchanged and cultured again for 24 hours. DMEM+2% FBS+1% P/S was used as the medium. After 24 hours, the medium was removed. 10 ng/ml of Transforming Growth Factor-132 Human recombinant (WAKO, 200-19911) was added, and the medium was cultured for 24 hours. DMEM+2% FBS+1% P/S was used as the medium. After 24 hours, the cell morphology and apoptosis were observed under a phase contrast microscope. After […] were seeded on a 12-well plate and cultured for 24 hours, the medium was removed. SB431542 (WAKO, 192-16541) and EW-7197 (Selleck Chemicals, 57530) were added so that the final concentration would each be 0.1, 0.3, 1, 3, or 10 μM, and the medium was cultured for 24 hours. DMEM+2% FBS+1% P/S was used as the medium. After 24 hours, the medium was removed. 10 ng/ml of Transforming Growth Factor-132 Human recombinant (WAKO, 200-19911) as well as SB431542 and EW-7197 were added so that the final concentration would each be 0.1, 0.3, 1, 3, or 10 μM, and the medium was cultured for 24 hours. DMEM+2% FBS+1% P/S was used as the medium. After 24 hours, the cell morphology and apoptosis were observed under a phase contrast microscope. After […] were seeded on a 12-well plate at a ratio of 7.0×10^4 cells and cultured for 24 hours, the medium was removed. EW-7197 (Selleck Chemicals, 57530) was added so that the final concentration would be 0.001, 0.003, 0.01, 0.03, 0.1, 0.3, 1, 3, 10, or 30 μM, and the medium was cultured for 24 hours. DMEM+2% FBS+1% P/S was used as the medium. After 24 hours, the medium was removed. 10 ng/ml of Transforming Growth Factor-132 Human recombinant (WAKO, 200-19911) and EW-7197 were added so that the final concentration would be 0.001, 0.003, 0.01, 0.03, 0.1, 0.3, 1, 3, 10, or 30 μM, and the medium was cultured for 24 hours. DMEM+2% FBS+1% P/S was used as the medium. After 24 hours, the cell morphology and apoptosis were observed under a phase contrast microscope.

activity of Caspase 3/7 [2]: reduced
Compound: NC(=O)c1ccc(-c2nc(-c3ccc4c(c3)OCO4)c(-c3ccccn3)[nH]2)cc1 [SB431542, reference compound]
cell survival rate compared to a control group [1]: a significant difference was not found | effect of suppressing corneal endothelial cell disorder ([3]; compound at 3 μM and 10 μM): suppressed | effect of suppressing corneal endothelial cell disorder ([3]; compound at 10 μM): effectively suppressed | effect of suppressing corneal endothelial disorders ([3]; summary statement, at sub-μM (1 μM to 0.1 μM)): not observed
